Among the test systems are HS 578T breast; MDA-N; M19-MEL melanoma; XF 498 CNS; DMS 273 small cell lung; DLD-1 colon; KM20L2 colon; LXFL 529 NSCLC.
Holding throughout (experiment): NCI anticancer screen, dose series, 48 h

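The compound was tested at five concentrations on cells cultured in 96-well plates, with a 48-hour exposure period. GI50 is the concentration that inhibits growth by half. At the TGI there is no net growth.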

Regarding `CCOC(=O)/C=C/CC(C)(C)CCOC(C)=O`, the TGI in the assay with HS 578T breast and in the assay with MDA-N was more than 10 µM throughout.

For `O=C(Nc1ccc(F)cc1)Nc1ccc(Cl)c([N+](=O)[O-])c1`, in the assay on HS 578T breast, the GI50 was 4.02 µM and the TGI stood at 24.2 µM.

With `CC1CCc2nc[nH]c(=O)c21` (centres undefined), in the assay on HS 578T breast, the GI50 was more than 100 µM and the TGI was more than 100 µM.

In the case of `COC1/C=C/OC2(C)Oc3c(C)c(O)c4c(O)c(c(/C=N/Nc5ccc([N+](=O)[O-])cc5[N+](=O)[O-])c(O)c4c3C2=O)NC(=O)C(C)=C/C=C/C(C)C(O)C(C)C(O)C(C)C(OC(C)=O)C1C` (centres undefined), in the assay with HS 578T breast, the GI50 is 0.97 µM and the TGI worked out at 3.59 µM.

With `CC(C)=CCC\C(C)=C/C=C/C(C)=C\C=C\C(C)=C/C=C/C=C(C)\C=C\C=C(C)/C=C/C=C(/C)CCC=C(C)C`, the TGI in the assay with HS 578T breast and in the assay with MDA-N was more than 100 µM in each case.

As for `C=C(C)C(OC)C(O)CC1(C)CC(O)CC(C)(C2CCC3OC(C4(C)CCC(Br)C(C)(C)O4)CCC3(C)O2)O1` (centres undefined), in the assay with HS 578T breast, the GI50 is 23.9 µM and the TGI was determined as 52.9 µM.

On to `OCC1=CC(NC2CC(CO)C(O)C(O)C2O)C(O)C(O)C1O` (centres undefined), for which the TGI in the assay with M19-MEL melanoma, with XF 498 CNS, with DMS 273 small cell lung and with DLD-1 colon was more than 100 µM throughout.

Turning to `Cc1ccc(Cl)c2c(N=Nc3ccccc3[N+](=O)[O-])c(O)[nH]c12`, the figures for the TGI in the assay on HS 578T breast and with MDA-N were 70.2 µM and more than 100 µM, respectively.

As for `CCOC(=O)CCC1(C(=O)OCC)CCCCC1=O` (centres undefined), the TGI in the assay with M19-MEL melanoma, in the assay with XF 498 CNS, in the assay with KM20L2 colon, in the assay on LXFL 529 NSCLC, in the assay with DMS 273 small cell lung and with DLD-1 colon was more than 100 µM in each case.

Consider `Nc1nc(-n2c(-c3ccccc3)nc3c(Br)cc(Br)cc3c2=O)nnc1-c1cccc(Cl)c1Cl`, for which, in the assay on HS 578T breast, the GI50 is 5.02 µM and the TGI stood at 41 µM.

On to `COc1cc(/C=N\NC(=O)CN2CCN(c3cc4c(cc3F)c(=O)c(C(=O)N/N=C/c3cc(OC)c(OC)c(OC)c3)cn4C3CC3)CC2)cc(OC)c1OC`, for which the GI50 in the assay on HS 578T breast is 0.308 µM.

For `c1ccc(-c2nc(-c3ccccc3SSc3ccccc3-c3nc(-c4ccccc4)nn3-c3ccccc3)n(-c3ccccc3)n2)cc1`, the TGI in the assay on HS 578T breast and in the assay on MDA-N was more than 100 µM throughout.

For the molecule `Fc1[nH]nc2ccc([C@@H]3Nc4ccc5[nH]ncc5c4[C@H]4C5CCC(C5)[C@@H]34)cc12` (some centres undefined), in the assay with HS 578T breast, the GI50 was 1.4 µM and the TGI is 13.6 µM.

On to `Cc1ccsc1C(=S)Nc1ccc(Cl)c(/C=N/OC(C)(C)C)c1`, for which the TGI with HS 578T breast and in the assay with MDA-N was more than 100 µM throughout.

In the case of `Nc1ccccc1C#C/C=C\C#Cc1ccccc1OC(F)(F)F`, in the assay on HS 578T breast, the GI50 is 4.08 µM and the TGI amounted to 22 µM.

On to `CCOC(=O)Cn1c(C(F)(F)F)nc2nc(Cl)c(Cl)nc21`, for which the TGI in the assay on HS 578T breast was 87.2 µM; with MDA-N, more than 100 µM.

In the case of `COc1ccccc1N1C(=O)C2c3[nH]c4ccccc4c3C3CCC(C(C)(C)C)CC3C2C1=O` (centres undefined), the TGI in the assay with M19-MEL melanoma, in the assay with XF 498 CNS, in the assay with KM20L2 colon, in the assay on LXFL 529 NSCLC, in the assay with DMS 273 small cell lung and in the assay with DLD-1 colon was more than 100 µM each time.

On to `OCc1cc2ccccc2c2c3c(ccc12)OCO3`, for which, in the assay with HS 578T breast, the GI50 is 29.8 µM and the TGI is 144 µM.

On to `OCCN(CCO)c1ncnc2c1ncn2Cc1ccc(CCl)cc1`, for which, in the assay on HS 578T breast, the GI50 is 16 µM and the TGI worked out at 36.9 µM.

`CCN(CC)N=Nc1c(C(N)=O)n[nH]c1C`: the TGI with HS 578T breast is more than 100 µM.

`Cc1nc2sccn2c1-c1csc(Nc2ccccc2Cl)n1`: in the assay with HS 578T breast, the GI50 is 6.92 µM and the TGI was more than 100 µM.

Turning to `Cn1cc(C2=C(c3c4n(c5ccccc35)CCCCC4)C(=O)NC2=O)c2ccccc21`, in the assay on HS 578T breast, the GI50 was 1.7 µM and the TGI was determined as 19.8 µM.

On to `NS(=O)(=O)OC[C@@H]1C[C@@H](n2ccc3c(NC4CCc5ccccc54)ncnc32)C[C@@H]1O` (some centres undefined), for which, in the assay on HS 578T breast, the GI50 is 16.8 µM and the TGI is 61.3 µM.

For the molecule `CCN1CCN(Cc2ccc(NC(=O)c3cccc(C#Cc4cccc5[nH]nc(N)c45)c3)cc2C(F)(F)F)CC1`, in the assay on HS 578T breast, the GI50 was 0.518 µM and the TGI was determined as 3.19 µM.

Turning to `O=[N+]([O-])c1ccc2c(c1)/C(=N/N=C1c3ccccc3Cc3ccccc31)c1cc([N+](=O)[O-])cc([N+](=O)[O-])c1-2`, the results for the TGI with HS 578T breast and in the assay with MDA-N were 6.81 µM and 9.38 µM, respectively.

Regarding `Cc1ccc([N+](=O)[O-])cc1NC1=NCCO1`, the TGI with HS 578T breast and in the assay with MDA-N was more than 100 µM in each case.

For the molecule `Cc1c(C(=O)CC(=O)C(=O)Nc2ccccc2C(F)(F)F)[n+](=O)c2ccccc2n1[O-]`, the TGI with XF 498 CNS turned out to be 42 µM; with KM20L2 colon, 92.3 µM; in the assay with LXFL 529 NSCLC, 62.1 µM; in the assay on DMS 273 small cell lung, 59.9 µM.

For `CC(=O)[CH-]C(=O)c1ccccc1.CC(=O)[CH-]C(=O)c1ccccc1.CN(C)c1ccc([O-])cc1.CN(C)c1ccc([O-])cc1.Cl.[Ti+4]`, the GI50 is 15.1 µM with M19-MEL melanoma, 20.4 µM in the assay on KM20L2 colon, 16 µM in the assay on LXFL 529 NSCLC and 15.6 µM in the assay on DLD-1 colon. The TGI was 26.4 µM in the assay on M19-MEL melanoma, more than 31.6 µM with KM20L2 colon, more than 31.6 µM in the assay with LXFL 529 NSCLC and more than 31.6 µM in the assay on DLD-1 colon.

Turning to `CCC(=O)[C@H](C)[C@@H](OC(=O)[C@H](C)CC)[C@H](C)[C@H]1OC(CC)=C(C)C(=O)[C@@H]1C`, in the assay on HS 578T breast, the GI50 was 30.3 µM and the TGI turned out to be 89.3 µM.

In the assay with MDA-N, `CN1CCN(C2=NCCO2)CC1` came in with a TGI of more than 100 µM.

For the molecule `OC1CSSC1Cn1cnc2c(Nc3ccc(OCc4cccc(F)c4)c(Cl)c3)ncnc21` (centres undefined), in the assay with HS 578T breast, the GI50 is 5.28 µM and the TGI was found to be 15 µM.

As to `COc1cnc2c(c1)C(=O)c1c-2n(CCCN2CCOCC2)c(=O)c2cc(F)ccc12`, in the assay on HS 578T breast, the GI50 is 1.5 µM and the TGI came out at 23.3 µM.

As to `NC1=NCCC1(c1ccccc1)c1ccccn1` (centres undefined), the TGI with M19-MEL melanoma, with XF 498 CNS, in the assay with KM20L2 colon, in the assay on LXFL 529 NSCLC and in the assay with DMS 273 small cell lung was more than 100 µM throughout.

These data come from PubChem BioAssay (NCI).
